Legend:
[1] = test system: LYMPHOCYTES; test: Disease to normal ratio of enzyme activity, lymphocytes (Table 5); assay type: cell-based, human
Source text: (§1) A normal in house adult donor pool was drawn, recording sex and determining that no known disease state was present at the time of sample draw. Criteria for rejecting samples included patients under medication, patients with infection or inflammation of any type, colds and flu as well as any known medical illness such as cancer, heart ailment and high blood pressure. A donor list of 75 patients has been developed and a mean and 2 sd range established. A subgroup of "super normals" was developed from this list by examining the 75 patients to determine which group falls closest to the mean for all enzymes in all cell types tested. These patients were used as the "wellness index" or best group of "normalcy" patients. If a study required the use of children or newborns then this same format was used to develop a data base for these age groups.

[2] = test system: MONOCYTES; test: Disease to normal ratio of enzyme activity, monocytes (Table 5); assay type: cell-based, human
Source text: as §1

[3] = test system: amino peptidase; test: Aminopeptidase activity in acute lympholytic Ficoll prepared lymphocytes; assay type: cell-based; settings: FIG. 4B
Source text: The cell's ability to fight off an invader lies within its genetics and therefore cell type. The "readiness" however of any genetically capable group of cells to defend is different. A measure of this "readiness" is manifest in the available proteolytic enzymes contained within vacuoles or on the surface of the cell. The assay compound hydrolysis rate increases with increased mass of enzymes giving a picture of immune competence both in number of cells and activity level. […] Images were generated using Universal Imaging.

[4] = Modulators of sensitivity of rhodamine 110 substrates; assay type: cell-based; settings: 1 mM
Source text: Modulators are components used to […] the sensitivity of the enzyme for the leaving group. The modulators speed up or slow down the activity of an enzyme by changing the active site. […] Preferred modulators for particular enzymes are included in Table 1.

[5] = Effect of sodium chloride on dipeptide reagent; assay type: cell-based; settings: 7 mM, pH range 6.5 to 8.7
Source text: Inhibitors and poisons (or toxins) are components that can be added to reduce the activity of non-targeted enzymes that provide competing reactions for the leaving group. Inhibitors are usually very selective for a particular enzyme. For example, EDTA only works with enzymes requiring Ca^+2, Mg^+2 and some other metals. […] Preferred inhibitors for particular enzymes are included in Table 1.

CC(C)C[C@H](N)C(=O)Nc1ccc2c(c1)Oc1cc(NC(=O)[C@@H](N)CC(C)C)ccc1C21OC(=O)c2ccccc21 [LEU, (Leu)2 Rho 110]
Ratio of disease to normal ([1]; Dermatomyositis): 1.36
Ratio of disease to normal ([1]; Inflam. Bowel Dis.): 1.34
Ratio of disease to normal ([1]; Lupus): 1.93
Ratio of disease to normal ([1]; Rheumatic Fever): 1.05
Ratio of disease to normal ([2]; Dermatomyositis, monocytes): 1.35
Ratio of disease to normal ([2]; Inflam. Bowel Dis., monocytes section): 1.13
Ratio of disease to normal ([2]; JRA, monocytes): 1.44
Ratio of disease to normal ([2]; Lupus, monocytes): 44.44
enzymatic activity [3]: lost their enzymatic activity

O[C@H](CS)[C@@H](O)CS [dithioerythritol (DTE), dithioerythritol]
effect on sensitivity of the leaving group for the enzyme ([4]; Ala-Gly and Leu-Gly substrates): does not change the sensitivity
effect on sensitivity of substituted rhodamine 110 substrates ([4]; Pro, Gly, Gln-Ser, Val-Lys-Val-Lys, Ala-Ala, Ala-Ala-Ala-Ala substrates): decreases the sensitivity

[Cl-].[Na+] [sodium chloride]
inhibitory effect on dipeptide reagent [5]: slightly inhibitory effect

— patent US5871946A, “Method for determining activity of enzymes in metabolically active whole cells” (priority 1995, dated 1999)
